Legend:
[1] = system: SOLNI (black nightshade); assay: Pre-emergence herbicidal activity, warm season; type: in vivo, Solanum nigrum; conditions: GR80 = lowest tested rate (300, 100, 30, 10 g/ha) with 80% or greater inhibition; approx. 14 days after treating; 30/21° C.
Outline: (§1)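 Seeds sown in sterilised fertilised topsoil received surface-applied compound in 50:50 acetone/water, typically at 300, 100, 30 and 10 g/ha, then greenhouse-grown at 30/21° C (warm-season species) or 18/13° C (cool-season species). Percent inhibition versus untreated plants was scored at about 14 days, giving GR80; an asterisk marks activity short of 80% at the top rate.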

[2] = system: GALAP (catchweed bedstraw); assay: Pre-emergence herbicidal activity, cool season; type: in vivo, Galium aparine; conditions: lowest tested rate with 80% or greater inhibition; rates 300, 100, 30, 10 g/ha; about 14 days
Outline: as §1

[3] = system: SINAR (wild mustard); assay: Pre-emergence herbicidal activity, cool season; type: in vivo, Sinapis arvensis; conditions: lowest tested rate with 80% or greater inhibition; rates 300, 100, 30, 10 g/ha; about 14 days
Outline: as §1

[4] = system: SASKR (russian thistle); assay: Pre-emergence herbicidal activity, cool season; type: in vivo, Salsola kali; conditions: lowest tested rate with 80% or greater inhibition; rates 300, 100, 30, 10 g/ha; about 14 days
Outline: as §1

[5] = system: LAMPU (purple deadnettle); assay: Pre-emergence herbicidal activity, cool season; type: in vivo, Lamium purpureum; conditions: lowest tested rate with 80% or greater inhibition; rates 300, 100, 30, 10 g/ha; about 14 days
Outline: as §1

[6] = system: AMARE (redroot pigweed); assay: Pre-plant incorporated (PPI) herbicidal activity, warm season; type: in vivo, Amaranthus retroflexus; conditions: for Percent inhibition AMARE: PPI application
Outline: (§2)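 Seeds sown on compacted topsoil were covered with soil into which test compound (organic solvent solution/suspension) had been sprayed and mixed; untreated cover soil for controls. Greenhouse, 0.64 cm overhead irrigation; warm season 30/21° C, cool season 18/13° C day/night. Percent inhibition versus untreated scored ~14 days after treatment.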

[7] = system: DATST (jimsonweed); assay: as above; type: in vivo, Datura stramonium; conditions: for Percent inhibition DATST: PPI application
Outline: as §2

[8] = system: PANMI (wild proso millet); assay: as above; type: in vivo, Panicum miliaceum; conditions: for Percent inhibition PANMI: PPI application
Outline: as §2

[9] = system: PANDI (fall panicum); assay: as above; type: in vivo, Panicum dichotomiflorum; conditions: PPI application
Outline: as §2

[10] = system: POLCO (wild buckwheat); assay: Pre-plant incorporated (PPI) herbicidal activity, cool season; type: in vivo, Polygonum convolvulus; conditions: for Percent inhibition POLCO: weed, PPI application
Outline: as §2

[11] = system: SINAR (wild mustard); assay: as above; type: in vivo, Sinapis arvensis; conditions: for Percent inhibition SINAR: weed, PPI application
Outline: as §2

[12] = system: ALOMY (blackgrass); assay: as above; type: in vivo, Alopecurus myosuroides; conditions: for Percent inhibition ALOMY: weed, PPI application
Outline: as §2

[13] = system: BROTE (downy brome); assay: as above; type: in vivo, Bromus tectorum; conditions: for Percent inhibition BROTE: weed, PPI application
Outline: as §2

[14] = pre-plant incorporated, GR80 = lowest tested rate with 80% or greater inhibition, approx. 14 days after treating, 30/21° C.
[15] = pre-plant incorporated, lowest tested rate with 80% or greater inhibition, about 14 days

In the case of CCN(CC)C(=O)n1cnc(S(=O)(=O)C(F)(F)SCc2ccccc2)n1 [Example 10], the “Pre-emergence activity (GR80) SOLNI” value [1] is reported as 300 g/ha, the “Pre-emergence activity GR80, GALAP” value [2] is reported as “[empty]” and the “Pre-emergence activity GR80, SINAR” value [3] is reported as 100 g/ha. For the same compound, the “Pre-emergence activity GR80, SASKR” value [4] was 100 g/ha, the “Pre-emergence activity GR80, LAMPU” value [5] was 100 g/ha and the “Percent inhibition AMARE” value ([6]; 10 g/ha) was 0%. The “Percent inhibition AMARE” value ([6]; 30 g/ha) was 0%, the “Percent inhibition AMARE” value ([6]; 100 g/ha) was 40% and the “Percent inhibition AMARE” value ([6]; 300 g/ha) was 100%. The “Percent inhibition AMARE” value ([6]; 900 g/ha) was 100%, the “Percent inhibition DATST” value ([7]; 10 g/ha) was 0% and the “Percent inhibition DATST” value ([7]; 30 g/ha) was 0%. The “Percent inhibition DATST” value ([7]; 100 g/ha) was 0%, the “Percent inhibition DATST” value ([7]; 300 g/ha) was 20% and the “Percent inhibition DATST” value ([7]; 900 g/ha) was 100%. For the same compound, the “Percent inhibition PANMI” value ([8]; 10 g/ha) was 0%, the “Percent inhibition PANMI” value ([8]; 30 g/ha) was 0% and the “Percent inhibition PANMI” value ([8]; 100 g/ha) was 80%. The “Percent inhibition PANMI” value ([8]; 300 g/ha) was 99%, the “Percent inhibition PANMI” value ([8]; 900 g/ha) was 100% and the “Percent inhibition PANDI” value ([9]; 10 g/ha) was 0%. The “Percent inhibition PANDI” value ([9]; 30 g/ha) was 50%, the “Percent inhibition PANDI” value ([9]; 100 g/ha) was 100% and the “Percent inhibition PANDI” value ([9]; 300 g/ha) was 100%. For the same compound, the “Percent inhibition PANDI” value ([9]; 900 g/ha) was 100%, the “Percent inhibition POLCO” value ([10]; 10 g/ha) was 0% and the “Percent inhibition POLCO” value ([10]; 30 g/ha) was 0%. The “Percent inhibition POLCO” value ([10]; 100 g/ha) was 60%, the “Percent inhibition POLCO” value ([10]; 300 g/ha) was 80% and the “Percent inhibition POLCO” value ([10]; 900 g/ha) was 95%. The “Percent inhibition SINAR” value ([11]; 10 g/ha) was 0%, the “Percent inhibition SINAR” value ([11]; 30 g/ha) was 90% and the “Percent inhibition SINAR” value ([11]; 100 g/ha) was 100%. The “Percent inhibition SINAR” value ([11]; 300 g/ha) was 80%, the “Percent inhibition SINAR” value ([11]; 900 g/ha) was 100% and the “Percent inhibition ALOMY” value ([12]; 10 g/ha) was 0%. The “Percent inhibition ALOMY” value ([12]; 30 g/ha) was 50%, the “Percent inhibition ALOMY” value ([12]; 100 g/ha) was 100% and the “Percent inhibition ALOMY” value ([12]; 300 g/ha) was 95%. The “Percent inhibition ALOMY” value ([12]; 900 g/ha) was 100%, the “Percent inhibition BROTE” value ([13]; 10 g/ha) was 0% and the “Percent inhibition BROTE” value ([13]; 30 g/ha) was 0%. The “Percent inhibition BROTE” value ([13]; 100 g/ha) was 10%, the “Percent inhibition BROTE” value ([13]; 300 g/ha) was 35% and the “Percent inhibition BROTE” value ([13]; 900 g/ha) was 60%.

In the case of CCN(CC)C(=O)n1cnc(S(=O)(=O)C(F)(F)SCC(=O)OC)n1 [Example 11], the “Pre-emergence activity (GR80) SOLNI” value [1] is reported as 300 g/ha, the “Pre-emergence activity GR80, GALAP” value [2] is reported as “[empty]” and the “Pre-emergence activity GR80, SINAR” value [3] is reported as 100 g/ha. For the same compound, the “Pre-emergence activity GR80, SASKR” value [4] was 300 g/ha, the “Pre-emergence activity GR80, LAMPU” value [5] was 100 g/ha and the “Percent inhibition AMARE” value ([6]; 10 g/ha) was 0%. For the same compound, the “Percent inhibition AMARE” value ([6]; 30 g/ha) was 90%, the “Percent inhibition AMARE” value ([6]; 100 g/ha) was 40% and the “Percent inhibition AMARE” value ([6]; 300 g/ha) was 95%. The “Percent inhibition AMARE” value ([6]; 900 g/ha) was 100%, the “PPI activity (GR80) AMARE” value [6, 14] was 100 g/ha and the “Percent inhibition DATST” value ([7]; 10 g/ha) was 0%. For the same compound, the “Percent inhibition DATST” value ([7]; 30 g/ha) was 0%, the “Percent inhibition DATST” value ([7]; 100 g/ha) was 20% and the “Percent inhibition DATST” value ([7]; 300 g/ha) was 20%. The “Percent inhibition DATST” value ([7]; 900 g/ha) was 80%, the “PPI activity (GR80) DATST” value [7, 14] was 100 g/ha and the “Percent inhibition PANMI” value ([8]; 30 g/ha) was 0%. The “Percent inhibition PANMI” value ([8]; 100 g/ha) was 20%, the “Percent inhibition PANMI” value ([8]; 300 g/ha) was 80% and the “Percent inhibition PANMI” value ([8]; 900 g/ha) was 100%. For the same compound, the “PPI activity GR80, PANMI” value [8, 15] was “* (activity observed, at least at highest rate, but <80% inhibition)”, the “Percent inhibition PANDI” value ([9]; 10 g/ha) was 0% and the “Percent inhibition PANDI” value ([9]; 30 g/ha) was 0%. The “Percent inhibition PANDI” value ([9]; 100 g/ha) was 70%, the “Percent inhibition PANDI” value ([9]; 300 g/ha) was 99% and the “Percent inhibition PANDI” value ([9]; 900 g/ha) was 100%. For the same compound, the “PPI activity GR80, POLCO” value [10, 15] was “* (activity observed, at least at highest rate, but <80% inhibition)”, the “Percent inhibition POLCO” value ([10]; 10 g/ha) was 0% and the “Percent inhibition POLCO” value ([10]; 30 g/ha) was 0%. The “Percent inhibition POLCO” value ([10]; 100 g/ha) was 0%, the “Percent inhibition POLCO” value ([10]; 300 g/ha) was 0% and the “Percent inhibition POLCO” value ([10]; 900 g/ha) was 30%. The “PPI activity GR80, SINAR” value [11, 15] was 100 g/ha, the “Percent inhibition SINAR” value ([11]; 10 g/ha) was 0% and the “Percent inhibition SINAR” value ([11]; 30 g/ha) was 0%. The “Percent inhibition SINAR” value ([11]; 100 g/ha) was 0%, the “Percent inhibition SINAR” value ([11]; 300 g/ha) was 0% and the “Percent inhibition SINAR” value ([11]; 900 g/ha) was 99%. For the same compound, the “PPI activity GR80, ALOMY” value [12, 15] was 300 g/ha, the “Percent inhibition ALOMY” value ([12]; 10 g/ha) was 0% and the “Percent inhibition ALOMY” value ([12]; 30 g/ha) was 0%. For the same compound, the “Percent inhibition ALOMY” value ([12]; 100 g/ha) was 20%, the “Percent inhibition ALOMY” value ([12]; 300 g/ha) was 45% and the “Percent inhibition ALOMY” value ([12]; 900 g/ha) was 100%. The “PPI activity GR80, BROTE” value [13, 15] was “[empty]”, the “Percent inhibition BROTE” value ([13]; 10 g/ha) was 0% and the “Percent inhibition BROTE” value ([13]; 30 g/ha) was 0%. The “Percent inhibition BROTE” value ([13]; 100 g/ha) was 0%, the “Percent inhibition BROTE” value ([13]; 300 g/ha) was 0% and the “Percent inhibition BROTE” value ([13]; 900 g/ha) was 20%.

From patent US6461997B1, “Triazole sulfones having herbicidal activity” (Monsanto Technology LLC, priority 1999, dated 2002)
